Data taken from patent publication US10076505B2, “Inhalation formulations of Treprostinil” (priority 2003, dated 2018).
“And” between values parts separate entries of the source, which are not always exact repeats. Equal entries are not always repeated.

Assays:
[1] = tested on: patients with class III or class IV heart failure; details: cited from earlier work
Buerger's disease = experiment: Case report: subcutaneous Treprostinil in severe Buerger's disease (Example IX); format: in vivo, human
Description: At this point, subcutaneous Treprostinil therapy was administered to the patient. Treprostinil was delivered chronically by continuous subcutaneous infusion using a pager-sized ambulatory infusion pump (Medtronic Minimed 407C, Minneapolis, Minn.)). […] The patient is now on a maintenance dose of Treprostinil 12 ng/kg/min from 9 PM-9 AM every seventh day, with no drug for the next 7 days.

critical limb ischemia = experiment: Open-label study of subcutaneous treprostinil in critical limb ischemia (Example X); format: in vivo, human
Text: The planned enrollment was ten patients. All patients were to have Fontaine Stage III-IV or Rutherford Class 4-6 disease and ankle brachial indexes (ABI) from 0-0.55 in the most affected limb or the limb containing the reference ischemic wound for wound healing assessments. […] Any condition or abnormal laboratory value which, based on information in the treprostinil package insert, would constitute an unacceptable risk to the patient's safety, also was an exclusion criterion. Patients could not have been in an investigational trial within the past 30 days or been a non-responder to chronic prostanoid treatment in the past 30 days.
After the completion of baseline assessments, treprostinil therapy was initiated in the clinic. […] Patients and/or a caregiver were trained to administer treprostinil on an outpatient basis using an ambulatory subcutaneous infusion pump (Minimed, Sylmar, Calif., Model 407C). Each patient was to be initiated at a dose of 2.5 ng/kg/min or lower, with the dose titrated based on tolerability. Dose increases were to be 1.25-2.5 ng/kg/min per week. The maximum allowed dose was 15 ng/kg/min and the minimum allowed dose was 0.625 ng/kg/min. The patients were instructed to change the subcutaneous infusion site every three days.
Patients returned to the clinic for assessments at Weeks 2, 6, and 12. Treprostinil treatment was terminated by gradually decreasing the infusion rate (over a period of 1-4 hours, as clinically indicated) after the Week 12 visit assessments were completed.
Safety was assessed in all patients using adverse event (AEs) and physical examination findings. Signs and symptoms of CLI or worsening CLI were not considered to be AEs unless found to be different in causality, intensity, or frequency.
Rest pain was assessed in all patients using a visual analog scale (VAS) for rest pain. The patients were asked to rate their leg pain on a scale of 0-10 with 0 reflecting no pain and 10 reflecting the worst pain. The scale was printed and the patients were asked to place a mark on the number that reflected their pain experience. Patients were asked to rate the worst pain they had experienced since the previous assessment and their average pain during that time frame. Analgesic medication use was assessed by the investigator as unchanged, increased, decreased, or discontinued.
Wound assessments were to be conducted in patients who had at least one ischemic wound at baseline. If the patient had multiple ischemic wounds, then one or two (usually the largest or most severe wounds) were be selected as reference wounds. The selected wound(s) was photographed for documentation. When possible, the outside edge of the wound(s) was traced for area measurement. The tracings were used to calculate wound area by measuring the length and width of the wound. Not all wounds were of the nature that tracings were possible for example, wounds between toes or on the heel with extensive tissue loss were not traced. These wounds were described and photographed.
In patients who had wounds other than those chosen as reference wounds, the overall status (i.e., worse, the same, improved, or healed) of each additional wound also was documented at each study visit. Any new wounds that occurred during the study also were carefully documented.

[2] = individual patients 1-10 (one table line each), versus baseline pain medication, listed as treprostinil

CCCCC[C@H](O)CC[C@@H]1[C@H]2Cc3cccc(OCC(=O)O)c3C[C@H]2C[C@H]1O [UT-15, 9-deoxy-2′,9-alpha-methano-3-oxa-4,5,6-trinor-3,7-(1′,3′-interphenylene)-13,14-dihydro-prostaglandin F1]
vasodilator effects [1]: vasodilator effects | dose limiting side effects (Buerger's disease; in vivo): diarrhea and jaw pain | Doppler studies (Buerger's disease; one patient): improvement in pulse volume recording wave form | return of ischemic symptoms after attempts to discontinue (Buerger's disease; one patient): ≤ 1 week | maximum tolerated dose (Buerger's disease; one patient, continuous subcutaneous infusion): 12.5 ng/kg/min | ulcer on right middle finger (Buerger's disease; one patient, maintenance 12 ng/kg/min): complete healing | patient-reported comfort and activities of daily living (Buerger's disease; one patient, sc infusion 12.5 ng/kg/min): improved comfort and increased ability to participate in activities of daily living | wounds during the twelve weeks of drug treatment (critical limb ischemia; Patient 3): remained stable | average rest pain score (critical limb ischemia; Patient 3, 7 at baseline): 4 | worst rest pain score (critical limb ischemia; Patient 3, reduced from 8): 4 | reduction in average rest pain (critical limb ischemia; baseline to week 12): 58% | reduction in the worst rest pain (critical limb ischemia; baseline to week 12): 64% | relation of SAEs to treprostinil (critical limb ischemia; cholecystectomy, worsening congestive heart failure): unlikely to be related | pain relief (critical limb ischemia; conclusion of study): pain relief in all patients | Pain Medication Consumption Week 2 (critical limb ischemia; [2]): No change (5×) and Less (4×) and PERCOCET ® | Pain Medication Consumption Week 6 (critical limb ischemia; [2]): Less (5×) and Increased and No change (2×) and None and Discontinued | Pain Medication Consumption Week 12 (critical limb ischemia; [2]): Darvocet and PERCOCET ® and None (2×) and No change (4×) | patients who discontinued drug prematurely (critical limb ischemia; of ten patients): Two | patients with complete healing of their wounds (critical limb ischemia; of ten patients): Three | patients with diarrhea (critical limb ischemia; of ten patients): one | patients with mild headache (critical limb ischemia; of ten patients): one | patients with mild jaw pain (critical limb ischemia; of ten patients): Two | week of complete wound closure (critical limb ischemia; patient 5, 15 ng/kg/min): 6 week | week of complete resolution of rest pain (critical limb ischemia; patient 7, 7.5 ng/kg/min): 6 week | week of complete wound closure (critical limb ischemia; patient 7, 7.5 ng/kg/min): 12 week | week of complete resolution of ischemic rest pain (critical limb ischemia; patient 10, 15 ng/kg/min): 2 week | week of complete wound closure (critical limb ischemia; patient 10, 15 ng/kg/min): 12 week | new wounds during the trial (critical limb ischemia; ten patients): No patient developed a new wound | serious adverse events (SAEs) (critical limb ischemia; ten patients): two | most common side effect (critical limb ischemia; ten patients, sc infusion up to 15 ng/kg/min): infusion site pain | patients switched to a non-sedating, non-narcotic pain medication (critical limb ischemia; week 12): one | patients with complete pain relief who discontinued all pain medications (critical limb ischemia; week 12): two | patients with increased consumption of pain medication (critical limb ischemia; week 12): one | patients with medication usage unchanged from baseline (critical limb ischemia; week 12): 4 patients | patients with reduced pain medication consumption (critical limb ischemia; week 12): three | average rest pain, mean VAS (0-10) (critical limb ischemia; week 12, baseline mean 7.1): 2.4 | worst rest pain, mean VAS (0-10) (critical limb ischemia; week 12, baseline mean 8.4): 2.5
